Test results as given in the NIST ThermoML archive (doi:10.1021/je2011055).
Numbers after ± are expanded uncertainties.

Conditions: Liquid, Closed cell (Static) method

In the case of `CC(C)C` [2-methylpropane], the “vapor or sublimation pressure” value (258.15 K) is reported as 88.9 ± 1 kPa, the “vapor or sublimation pressure” value (268.15 K) is reported as 130.8 ± 1.1 kPa and the “vapor or sublimation pressure” value (278.15 K) is reported as 186.7 ± 1.1 kPa. For the same molecule, the “vapor or sublimation pressure” value (288.15 K) was 258.7 ± 1.3 kPa.
In the case of `F/C=C/C(F)(F)F` [trans-1,3,3,3-tetrafluoropropene], the “vapor or sublimation pressure” value (258.15 K) is reported as 119.3 ± 1.1 kPa, the “vapor or sublimation pressure” value (268.15 K) is reported as 178.4 ± 1.1 kPa and the “vapor or sublimation pressure” value (278.15 K) is reported as 258.1 ± 1.3 kPa. The “vapor or sublimation pressure” value (288.15 K) was 362.8 ± 1.5 kPa.
